# Numbering of substitutions follows the chain as printed.
# Key:
# Type in all cases: cell-based
# Settings in all cases: 30 C; extract in 50 mM Tris-HCl pH 7.5; described as competitive inhibitor
# [1] = target: T1, HsHK1 (Homo sapiens, UniProt P19367, G679A)
# T1 sequence (P19367 1-917 G679A): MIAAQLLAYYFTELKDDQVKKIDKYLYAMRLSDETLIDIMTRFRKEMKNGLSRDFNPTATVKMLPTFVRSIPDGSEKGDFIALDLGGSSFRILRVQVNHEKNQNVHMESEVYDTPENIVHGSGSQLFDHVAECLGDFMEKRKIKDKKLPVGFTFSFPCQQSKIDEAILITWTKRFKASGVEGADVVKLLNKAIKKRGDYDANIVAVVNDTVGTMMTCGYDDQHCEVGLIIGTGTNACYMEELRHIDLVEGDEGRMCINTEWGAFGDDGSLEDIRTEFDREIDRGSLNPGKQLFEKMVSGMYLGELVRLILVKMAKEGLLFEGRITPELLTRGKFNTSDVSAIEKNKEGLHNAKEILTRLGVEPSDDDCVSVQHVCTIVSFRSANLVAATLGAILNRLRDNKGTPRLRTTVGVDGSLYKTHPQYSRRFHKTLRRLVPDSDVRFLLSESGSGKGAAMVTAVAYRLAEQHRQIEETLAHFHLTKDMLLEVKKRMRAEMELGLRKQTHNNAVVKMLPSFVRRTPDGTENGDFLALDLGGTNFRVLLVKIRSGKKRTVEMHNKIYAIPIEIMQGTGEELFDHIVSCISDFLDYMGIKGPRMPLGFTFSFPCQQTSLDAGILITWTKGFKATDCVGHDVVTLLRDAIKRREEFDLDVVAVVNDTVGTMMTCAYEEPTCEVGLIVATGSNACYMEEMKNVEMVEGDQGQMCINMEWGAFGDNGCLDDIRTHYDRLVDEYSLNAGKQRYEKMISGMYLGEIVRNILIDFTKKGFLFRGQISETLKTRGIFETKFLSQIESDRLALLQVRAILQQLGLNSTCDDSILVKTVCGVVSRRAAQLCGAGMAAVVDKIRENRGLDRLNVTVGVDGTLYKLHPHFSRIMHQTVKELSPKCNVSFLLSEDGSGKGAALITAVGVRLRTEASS
# [2] = target: T2, HsHK2 (Homo sapiens, UniProt P52789)
# T2 sequence (P52789 1-917): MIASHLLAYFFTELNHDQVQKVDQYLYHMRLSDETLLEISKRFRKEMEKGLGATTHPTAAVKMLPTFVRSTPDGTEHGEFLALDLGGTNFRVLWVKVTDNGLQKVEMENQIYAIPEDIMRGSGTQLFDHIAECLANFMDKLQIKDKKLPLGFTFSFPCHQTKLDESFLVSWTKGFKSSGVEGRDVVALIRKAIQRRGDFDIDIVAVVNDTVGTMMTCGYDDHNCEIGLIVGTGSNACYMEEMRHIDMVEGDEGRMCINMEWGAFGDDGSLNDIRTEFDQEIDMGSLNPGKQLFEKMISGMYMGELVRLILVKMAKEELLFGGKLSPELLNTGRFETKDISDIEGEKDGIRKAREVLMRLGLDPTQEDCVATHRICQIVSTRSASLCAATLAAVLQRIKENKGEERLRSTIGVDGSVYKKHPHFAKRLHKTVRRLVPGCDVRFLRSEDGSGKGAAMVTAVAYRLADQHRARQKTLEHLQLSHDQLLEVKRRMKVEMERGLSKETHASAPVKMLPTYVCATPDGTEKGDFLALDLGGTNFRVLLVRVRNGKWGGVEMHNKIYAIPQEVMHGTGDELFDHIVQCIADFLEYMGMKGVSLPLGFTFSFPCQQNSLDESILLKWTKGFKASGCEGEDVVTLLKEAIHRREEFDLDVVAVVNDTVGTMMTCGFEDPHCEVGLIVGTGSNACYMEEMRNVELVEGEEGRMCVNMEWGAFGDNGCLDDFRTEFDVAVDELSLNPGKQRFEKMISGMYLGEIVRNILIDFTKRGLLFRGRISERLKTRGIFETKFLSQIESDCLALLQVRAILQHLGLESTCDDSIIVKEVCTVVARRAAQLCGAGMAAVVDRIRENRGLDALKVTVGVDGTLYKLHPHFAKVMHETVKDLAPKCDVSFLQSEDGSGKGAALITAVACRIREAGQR
# [3] = target: T3, HsHK1 (Homo sapiens, UniProt P19367)
# T3 sequence (P19367 1-917): T1 sequence (P19367 1-917 G679A) with A679G
# [4] = target: T4, HsHK2 (Homo sapiens, UniProt P52789, L776F)
# T4 sequence (P52789 1-917 L776F): T2 sequence (P52789 1-917) with L776F
compound,measurement,setting,value
O=P(O)(O)OC[C@H]1OC(O)[C@H](O)[C@@H](O)[C@@H]1O (stereo partly shown) [glucose-6-phosphate],IC50,[1],320 ± 100 µM
same,IC50,[2],87 ± 21 µM
same,IC50,[3],38 ± 15 µM
same,IC50,[4],260 ± 200 µM

# — publication doi:10.1101/2021.09.28.462164v1 (biorxiv, 2021)
